US20120114576A1, “Method for preventing or treating yellowish discoloration of skin” (Shiseido Company, Ltd., priority 2010, published 2012)

Target: T1, acellular dermis model (contracted collagen gel) (Bos taurus, UniProt P02453+P02465)
T1 construct: purchased Koken, Tokyo, Japan; host or cells: The gel was contracted by dermal fibroblasts, which were then destroyed by washing with de-ionized water
Assay: Experimental induction of yellowish change in acellular dermis model by carbonyl modification or glycation (colorimetry b*)
Design: species or system bovine
Conditions: 37° C.; for yellowish change of the dermal model (b*), long term treatment: 50 μM, 50 days, FIGS. 6 C and D; for yellowish change of the gel (b*): 9 days, FIGS. 6 A and B
Procedure: Skin color was measured by using a chromameter Konica-Minolta CM 2600d. The measurement of excised skin samples was performed by placing the skin samples on a white board. Data were expressed in the CIE L*a*b* color space, and the parameter b* was employed as a value for yellowish color.
A dermal equivalent model consisted of contracted collagen gel containing a trace amount of other extracellular matrix was prepared according to the method described by Tsunenaga et al. with a slight modification. Briefly, dermal fibroblasts (1×10^6 cells) were cultivated in 10 ml of Dulbecco's modified Eagle's medium supplemented with 10% fetal bovine serum and 0.3% acid-solubilized bovine type I collagen (Koken, Tokyo, Japan) in a petri dish of 60 mm diameter at 37° C. and 5% CO2. After 7 days of culture, a contracted collagen gel approximately 15 mm diameter was produced. Thereafter, this dermal equivalent model was extensively washed with serial changes of an excess amount of de-ionized water to destroy fibroblasts and to remove soluble materials.
The prepared acellular dermis model was incubated in 2.5 ml of an aqueous solution of chemical reagents, containing acrolein (50 μM to 10 mM) and 4-hydroxynonenal (4-HNE, 50 μM to 10 mM) for the carbonyl modification, and ribose (200 mM) and glyoxal (10 mM) for glycation. They were INCUBATED at 37° C. and the solutions were changed twice a week. Changes taking place in their color were monitored by colorimetry.
To confirm a link suspected between the carbonyl modification and the yellowish change of the dermis, the inventors examined the effect of experimentally produced carbonyl modification on the color of an acellular dermis model, and selected a contracted collagen gel as a dermis model, and treated it with acrolein or 4-HNE to induce carbonyl modification, or with d-ribose or glyoxal to induce glycation as a reference. […] Furthermore, a long term treatment of the dermis model with 50 μM acrolein or 50 μM 4-HNE, which were almost equivalent to those of the physiological concentrations in human tissue, also led to the yellowish colorization (FIGS. 6 C and D).

T1 sequence (P02453 162-1217 limits assumed): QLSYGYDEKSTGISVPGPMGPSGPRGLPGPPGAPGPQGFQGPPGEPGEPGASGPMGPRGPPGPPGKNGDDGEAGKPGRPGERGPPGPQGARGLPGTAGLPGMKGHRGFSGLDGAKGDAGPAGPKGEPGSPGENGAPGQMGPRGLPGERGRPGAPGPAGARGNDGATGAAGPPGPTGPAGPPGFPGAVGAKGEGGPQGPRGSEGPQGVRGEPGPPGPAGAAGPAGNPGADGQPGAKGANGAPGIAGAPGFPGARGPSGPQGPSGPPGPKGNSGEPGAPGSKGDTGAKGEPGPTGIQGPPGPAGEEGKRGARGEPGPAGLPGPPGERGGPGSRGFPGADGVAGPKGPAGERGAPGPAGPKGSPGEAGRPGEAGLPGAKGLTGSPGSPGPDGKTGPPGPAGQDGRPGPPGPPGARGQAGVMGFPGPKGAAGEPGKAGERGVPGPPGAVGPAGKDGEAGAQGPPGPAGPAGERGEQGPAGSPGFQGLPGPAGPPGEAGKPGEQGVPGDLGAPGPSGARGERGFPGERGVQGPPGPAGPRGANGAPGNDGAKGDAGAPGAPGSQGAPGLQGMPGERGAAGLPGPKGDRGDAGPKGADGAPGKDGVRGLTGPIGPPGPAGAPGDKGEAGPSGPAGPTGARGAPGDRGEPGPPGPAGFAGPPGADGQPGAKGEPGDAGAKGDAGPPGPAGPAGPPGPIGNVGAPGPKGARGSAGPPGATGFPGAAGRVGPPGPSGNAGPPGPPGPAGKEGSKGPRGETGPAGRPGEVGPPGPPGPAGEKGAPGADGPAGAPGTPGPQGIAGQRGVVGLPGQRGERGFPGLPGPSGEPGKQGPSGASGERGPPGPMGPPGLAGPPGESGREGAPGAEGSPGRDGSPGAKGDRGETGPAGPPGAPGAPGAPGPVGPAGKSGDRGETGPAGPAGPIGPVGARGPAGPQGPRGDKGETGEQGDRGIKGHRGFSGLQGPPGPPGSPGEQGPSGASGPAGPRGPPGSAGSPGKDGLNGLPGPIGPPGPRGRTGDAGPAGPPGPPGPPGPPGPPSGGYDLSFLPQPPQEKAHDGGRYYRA
T1 sequence (P02465 80-1117 limits assumed): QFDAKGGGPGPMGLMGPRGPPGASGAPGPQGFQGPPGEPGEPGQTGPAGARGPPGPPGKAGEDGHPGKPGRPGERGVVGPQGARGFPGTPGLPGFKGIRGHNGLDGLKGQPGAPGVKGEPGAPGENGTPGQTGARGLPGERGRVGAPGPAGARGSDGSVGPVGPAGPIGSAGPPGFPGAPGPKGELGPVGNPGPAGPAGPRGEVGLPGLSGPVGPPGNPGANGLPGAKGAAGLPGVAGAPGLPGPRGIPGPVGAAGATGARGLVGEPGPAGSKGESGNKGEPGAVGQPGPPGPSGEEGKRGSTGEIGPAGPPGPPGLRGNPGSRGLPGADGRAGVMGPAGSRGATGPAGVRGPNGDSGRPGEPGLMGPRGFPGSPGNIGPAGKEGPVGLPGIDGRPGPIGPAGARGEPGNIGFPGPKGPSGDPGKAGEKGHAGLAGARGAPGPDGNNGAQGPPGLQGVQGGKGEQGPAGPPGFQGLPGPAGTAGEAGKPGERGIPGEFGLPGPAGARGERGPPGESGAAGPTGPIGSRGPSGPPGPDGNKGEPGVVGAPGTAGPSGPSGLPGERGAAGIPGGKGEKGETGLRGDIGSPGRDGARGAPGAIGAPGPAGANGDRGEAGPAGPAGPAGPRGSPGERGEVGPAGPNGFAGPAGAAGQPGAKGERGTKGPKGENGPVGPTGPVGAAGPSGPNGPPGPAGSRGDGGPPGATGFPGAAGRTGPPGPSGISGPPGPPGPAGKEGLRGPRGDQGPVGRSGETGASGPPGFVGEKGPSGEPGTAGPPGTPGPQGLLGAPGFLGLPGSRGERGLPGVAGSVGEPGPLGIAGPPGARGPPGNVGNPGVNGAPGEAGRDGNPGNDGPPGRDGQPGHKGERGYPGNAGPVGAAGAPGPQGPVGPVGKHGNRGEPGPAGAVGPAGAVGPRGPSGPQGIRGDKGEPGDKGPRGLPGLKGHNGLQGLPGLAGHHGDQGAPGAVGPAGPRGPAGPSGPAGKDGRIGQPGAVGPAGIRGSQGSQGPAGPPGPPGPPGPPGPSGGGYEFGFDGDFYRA

SMILES	yellowish change of the dermal model (b*), long term treatment	yellowish change of the gel (b*) (10 mM)	yellowish change of the gel (b*) (200 mM)
C=CC=O [acrolein]	almost linear increase depending on the treatment period	significant yellowish change	
CCCCCC(O)/C=C/C=O (stereo not drawn) [4-HNE, 4-hydroxynonenal]	reached the maximum in the first 10 days	significant yellowish change	
O=C[C@H](O)[C@H](O)[C@H](O)CO [d-ribose]			only a slight yellowish change
O=CC=O [glyoxal]		only a slight yellowish change	
